Experimental data as given in patent US20080063628A1, “METHODS TO PROMOTE CELL DIFFERENTIATION” (priority 2006, published 2008).

Key:
[1] = test system: second amniotic fluid-derived cell line; experiment: Two sequential low dose trichostatin A treatments, gene expression by RT-PCR (Example 7); type: cell-based, human; conditions: for Gata1 gene expression / HNF (HNF-3 beta) gene expression / Insulin gene expression / Pdx-1 gene expression / sox17 gene expression: 500 nM 0-24 h + 96-120 h
Description: (§1) Several cell lines obtained from different amniotic fluid specimens (see Example 14) and pancreas donors (see Example 13) were tested with similar results. Two lines at similar passage number but derived from different amniotic fluid specimens are shown in Table VII-A and Table VII-B for this example. One of these cell lines was also used in examples 2 and 4 above. In addition, this example also contains comparison data in Table VII-C and Table VII-D for a single pancreatic-derived stromal line grown to early and late passage number.
(§2) Amniotic fluid derived cells or pancreatic-derived stromal cells were seeded into 24-well tissue culture plates at a density of 5000/cm^2 and cultured in AMNIOMAX (Invitrogen) or DMEM with 10% FBS respectively under standard cell culture conditions until confluent. After the cells reached confluency, amniotic fluid derived cells were treated at time 0 hours with a dose of 500 nM trichostatin A, and pancreatic-derived stromal cells were treated with a dose of 1.25 μM trichostatin A solubilized in DMSO and medium. At time 24 hours, cell cultures underwent a complete medium change to remove all traces of trichostatin A. At time 96 hours, cell cultures were re-fed with fresh medium and received a second dose of trichostatin A at the same concentration as used previously. At time 120 hours, cell cultures again underwent a complete medium change and were cultured for an additional 24 hours or […] total incubation time.
(§3) Samples were taken daily for RT-PCR at the times indicated in Table VII-A to D. The culture medium was removed, and samples were rinsed in PBS then collected in RLT with β-mercaptoethanol (Qiagen). RNA was purified using the RNeasy Mini Kit (Qiagen) and RNA quantity and quality were determined using a spectrophotometer. cDNA was made using the iScript cDNA synthesis kit (BioRad).
(§4) Samples of 20 ng cDNA were used in each reaction to determine the expression levels of the following genes in amniotic fluid-derived cells: Gata1, HNF-3 beta, Pdx-1, insulin, and Sox17. Similarly, samples of 20 ng cDNA were used in each reaction to determine the expression level of the following genes in pancreatic-derived cells: glucagon, HNF-3 beta, insulin and Pdx-1. Real-Time PCR was performed on the Applied Biosystems 7500, and data was analyzed using the accompanying software according to the methods described in Example 15.
(§5) Real-time PCR amplifcation and quantitative analysis. Unless otherwise stated, all reagents were purchased from Applied Biosystems. Real-time PCR reactions were performed using the ABI PRISM™ 7500 Sequence Detection System. TAQMAN™ FAST UNIVERSAL PCR MASTER MIX™ (ABI, CA) was used with 20 ng of reverse transcribed RNA in a total reaction volume of 20 μl. Each cDNA sample was run in duplicate to allow correction of pipetting errors. Primers and FAM-labeled TAQMAN™ probes were used at concentrations of 200 nM. The level of expression for each target gene was normalized using the pre-developed Applied Biosystem's human glyceraldehyde-3-phosphate dehydrogenase (GAPDH) endogenous control kit. Primers and probes were designed using either ABI PRISM PRIMER EXPRESS™ software or a pre-developed ABI gene analysis kit. For each gene, either one of the primers or the probe were designed to be exon-boundary spanning. This eliminated the possibility of the primers/probe binding to any genomic DNA present. The primer and probe sets are listed as follows: Pdx-1 (Hs00426216), Insulin (Hs00355773), glucagon (Hs00174967), and FoxA2 (HNF 3-beta) (Hs00232764). The remaining primers were designed using the PRIMERS program (ABI, CA). After an initial 95° C. incubation for 20 sec, samples were cycled 40 times in two stages: a denaturation step at 95° C. for 3 sec, followed by an annealing/extension step at 60° C. for 30 sec. […]

[2] = test system: amniotic fluid-derived cell line; experiment: as above; type: cell-based, human; conditions: for Gata1 gene expression / HNF (HNF-3 beta) gene expression / Insulin gene expression / Pdx-1 gene expression / sox17 gene expression: 500 nM 0-24 h + 96-120 h
Description: as §1, §2, §3, §4, §5

CC(/C=C/C(=O)NO)=C\[C@@H](C)C(=O)c1ccc(N(C)C)cc1 [trichostatin A]
Pdx-1 RT-PCR detection cycle ([1]; 0.5 μM, 24 hours): 39 cycles
Insulin RT-PCR detection cycle ([1]; 0.5 μM, 72 hours and remainder of the experiment): 34 cycles
HNF-3 beta RT-PCR detection cycle ([1]; 0.5 μM, until 72 hours): 34 cycles
Gata1 gene expression ([1]; 24 hrs): nd (not detectable at >40 cycles by RT-PCR)
HNF (HNF-3 beta) gene expression ([1]; 24 hrs): +++ (detectable at less than 35 cycles RT-PCR with SE less than 0.9)
Insulin gene expression ([1]; 24 hrs): nd (not detectable at >40 cycles by RT-PCR)
Pdx-1 gene expression ([1]; 24 hrs): + (detectable between 35 and 40 cycles RT-PCR)
sox17 gene expression ([1]; 24 hrs): +++ (detectable at less than 35 cycles RT-PCR with SE less than 0.9)
Gata1 gene expression ([1]; 48 hrs): nd (not detectable at >40 cycles by RT-PCR)
HNF (HNF-3 beta) gene expression ([1]; 48 hrs): +++ (detectable at less than 35 cycles RT-PCR with SE less than 0.9)
Insulin gene expression ([1]; 48 hrs): nd (not detectable at >40 cycles by RT-PCR)
Pdx-1 gene expression ([1]; 48 hrs): nd (not detectable at >40 cycles by RT-PCR)
sox17 gene expression ([1]; 48 hrs): +++ (detectable at less than 35 cycles RT-PCR with SE less than 0.9)
Gata1 gene expression ([1]; 72 hrs): nd (not detectable at >40 cycles by RT-PCR)
HNF (HNF-3 beta) gene expression ([1]; 72 hrs): +++ (detectable at less than 35 cycles RT-PCR with SE less than 0.9)
Insulin gene expression ([1]; 72 hrs): +++ (detectable at less than 35 cycles RT-PCR with SE less than 0.9)
Pdx-1 gene expression ([1]; 72 hrs): nd (not detectable at >40 cycles by RT-PCR)
sox17 gene expression ([1]; 72 hrs): +++ (detectable at less than 35 cycles RT-PCR with SE less than 0.9)
Gata1 gene expression ([1]; 96 hrs): nd (not detectable at >40 cycles by RT-PCR)
HNF (HNF-3 beta) gene expression ([1]; 96 hrs): + (detectable between 35 and 40 cycles RT-PCR)
Insulin gene expression ([1]; 96 hrs): +++ (detectable at less than 35 cycles RT-PCR with SE less than 0.9)
Pdx-1 gene expression ([1]; 96 hrs): nd (not detectable at >40 cycles by RT-PCR)
sox17 gene expression ([1]; 96 hrs): +++ (detectable at less than 35 cycles RT-PCR with SE less than 0.9)
Gata1 gene expression ([1]; 120 hrs): nd (not detectable at >40 cycles by RT-PCR)
HNF (HNF-3 beta) gene expression ([1]; 120 hrs): + (detectable between 35 and 40 cycles RT-PCR)
Insulin gene expression ([1]; 120 hrs): + (detectable between 35 and 40 cycles RT-PCR)
Pdx-1 gene expression ([1]; 120 hrs): nd (not detectable at >40 cycles by RT-PCR)
sox17 gene expression ([1]; 120 hrs): +++ (detectable at less than 35 cycles RT-PCR with SE less than 0.9)
Gata1 gene expression ([1]; 144 hrs): nd (not detectable at >40 cycles by RT-PCR)
HNF (HNF-3 beta) gene expression ([1]; 144 hrs): + (detectable between 35 and 40 cycles RT-PCR)
Insulin gene expression ([1]; 144 hrs): +++ (detectable at less than 35 cycles RT-PCR with SE less than 0.9)
Pdx-1 gene expression ([1]; 144 hrs): nd (not detectable at >40 cycles by RT-PCR)
sox17 gene expression ([1]; 144 hrs): +++ (detectable at less than 35 cycles RT-PCR with SE less than 0.9)
Insulin RT-PCR detection cycle ([2]; 0.5 μM, by 48 hours (after removal at 24 h)): 36 cycles
HNF-3 beta RT-PCR detection cycle ([2]; 0.5 μM, following the first treatment): 33 cycles
HNF-3 beta RT-PCR detection cycle ([2]; 0.5 μM, following the second treatment): 37 cycles
Pdx-1 RT-PCR detection cycle ([2]; 0.5 μM, for 24 hours following the addition): 37 cycles
Gata1 gene expression ([2]; 24 hrs): nd (not detectable at >40 cycles by RT-PCR)
HNF (HNF-3 beta) gene expression ([2]; 24 hrs): +++ (detectable at less than 35 cycles by RT-PCR with SE less than 0.9)
Insulin gene expression ([2]; 24 hrs): nd (not detectable at >40 cycles by RT-PCR)
Pdx-1 gene expression ([2]; 24 hrs): + (detectable between 35 and 40 cycles by RT-PCR)
sox17 gene expression ([2]; 24 hrs): +++ (detectable at less than 35 cycles by RT-PCR with SE less than 0.9)
Gata1 gene expression ([2]; 48 hrs): nd (not detectable at >40 cycles by RT-PCR)
HNF (HNF-3 beta) gene expression ([2]; 48 hrs): +++ (detectable at less than 35 cycles by RT-PCR with SE less than 0.9)
Insulin gene expression ([2]; 48 hrs): + (detectable between 35 and 40 cycles by RT-PCR)
Pdx-1 gene expression ([2]; 48 hrs): nd (not detectable at >40 cycles by RT-PCR)
sox17 gene expression ([2]; 48 hrs): +++ (detectable at less than 35 cycles by RT-PCR with SE less than 0.9)
Gata1 gene expression ([2]; 72 hrs): nd (not detectable at >40 cycles by RT-PCR)
HNF (HNF-3 beta) gene expression ([2]; 72 hrs): + (detectable between 35 and 40 cycles by RT-PCR)
Insulin gene expression ([2]; 72 hrs): + (detectable between 35 and 40 cycles by RT-PCR)
Pdx-1 gene expression ([2]; 72 hrs): nd (not detectable at >40 cycles by RT-PCR)
sox17 gene expression ([2]; 72 hrs): +++ (detectable at less than 35 cycles by RT-PCR with SE less than 0.9)
Gata1 gene expression ([2]; 96 hrs): nd (not detectable at >40 cycles by RT-PCR)
HNF (HNF-3 beta) gene expression ([2]; 96 hrs): nd (not detectable at >40 cycles by RT-PCR)
Insulin gene expression ([2]; 96 hrs): + (detectable between 35 and 40 cycles by RT-PCR)
Pdx-1 gene expression ([2]; 96 hrs): nd (not detectable at >40 cycles by RT-PCR)
sox17 gene expression ([2]; 96 hrs): +++ (detectable at less than 35 cycles by RT-PCR with SE less than 0.9)
Gata1 gene expression ([2]; 120 hrs): nd (not detectable at >40 cycles by RT-PCR)
HNF (HNF-3 beta) gene expression ([2]; 120 hrs): + (detectable between 35 and 40 cycles by RT-PCR)
Insulin gene expression ([2]; 120 hrs): + (detectable between 35 and 40 cycles by RT-PCR)
Pdx-1 gene expression ([2]; 120 hrs): nd (not detectable at >40 cycles by RT-PCR)
sox17 gene expression ([2]; 120 hrs): +++ (detectable at less than 35 cycles by RT-PCR with SE less than 0.9)
Gata1 gene expression ([2]; 144 hrs): nd (not detectable at >40 cycles by RT-PCR)
HNF (HNF-3 beta) gene expression ([2]; 144 hrs): + (detectable between 35 and 40 cycles by RT-PCR)
Insulin gene expression ([2]; 144 hrs): + (detectable between 35 and 40 cycles by RT-PCR)
Pdx-1 gene expression ([2]; 144 hrs): nd (not detectable at >40 cycles by RT-PCR)
sox17 gene expression ([2]; 144 hrs): +++ (detectable at less than 35 cycles by RT-PCR with SE less than 0.9)
